What was measured:
Plasmodium falciparum [1] = assay: In vitro antimalarial activity for Plasmodium falciparum D6; format: functional, organism-based
Plasmodium falciparum [2] = assay: In vitro antimalarial activity for Plasmodium falciparum W2; format: functional, organism-based
Plasmodium falciparum [3] = assay: In vitro antimalarial activity for Plasmodium falciparum BHz26/86; format: functional, organism-based
Plasmodium falciparum [4] = assay: In vitro antimalarial activity for Plasmodium falciparum HB3; format: functional, organism-based
Plasmodium berghei [5] = assay: Inhibition of Plasmodium berghei infection in mice (Mus musculus) at 200 mg/kg peroral dose (expt 1); format: functional; conditions: route oral
Plasmodium berghei [6] = assay: Inhibition of Plasmodium berghei infection in mice (Mus musculus) at 200 mg/kg subcutaneous dose (experiment 1); format: functional; conditions: sc
Plasmodium berghei [7] = assay: Inhibition of Plasmodium berghei infection in mice (Mus musculus) at 200 mg/kg subcutaneous dose (expt 2); format: functional; conditions: sc
Plasmodium berghei [8] = assay: Inhibition of Plasmodium berghei infection in mice (Mus musculus) at 100 mg/kg subcutaneous dose (expt 3); format: functional; conditions: sc
Plasmodium berghei [9] = assay: Inhibition of Plasmodium berghei infection in mice (Mus musculus) at 100 mg/kg subcutaneous dose (experiment 2); format: functional; conditions: sc
Plasmodium berghei [10] = assay: Inhibition of Plasmodium berghei infection in mice (Mus musculus) at 200 mg/kg subcutaneous dose (expt 3); format: functional; conditions: sc
Plasmodium berghei [11] = assay: Inhibition of Plasmodium berghei infection in mice (Mus musculus) at 200 mg/kg peroral dose (expt 2); format: functional; conditions: route oral
Plasmodium berghei [12] = assay: Inhibition of Plasmodium berghei infection in mice (Mus musculus) at 100 mg/kg subcutaneous dose (expt 1); format: functional; conditions: sc
Plasmodium berghei [13] = assay: Inhibition of Plasmodium berghei in mice (Mus musculus) after 15 mg/kg subcutaneous dose (experiment 1); format: functional; conditions: sc
Plasmodium berghei [14] = assay: Inhibition of Plasmodium berghei infection in mice (Mus musculus) at 25 mg/kg peroral dose (expt 2); format: functional; conditions: route oral
Plasmodium berghei [15] = assay: Inhibition of Plasmodium berghei infection in mice (Mus musculus) at 15 mg/kg subcutaneous dose (experiment 3); format: functional; conditions: sc
Plasmodium berghei [16] = assay: Inhibition of Plasmodium berghei infection in mice (Mus musculus) at 25 mg/kg peroral dose (experiment 1); format: functional; conditions: route oral
Plasmodium berghei [17] = assay: Inhibition of Plasmodium berghei infection in mice (Mus musculus) at 15 mg/kg subcutaneous dose (experiment 2); format: functional; conditions: sc

Row | SMILES | IC50 (Plasmodium falciparum [1]) [µM] | IC50 (Plasmodium falciparum [2]) [µM] | IC50 (Plasmodium falciparum [3]) [µM] | IC50 (Plasmodium falciparum [4]) [µM] | inhibition in vivo at 200 mg/kg (Plasmodium berghei [5]) [%] | inhibition in vivo at 200 mg/kg (Plasmodium berghei [11]) [%] | further results
1 | CC1(C)CCc2c(c3ccccc3c3nc4ccccc4nc23)O1 | > 20 | > 20 | > 20 | > 20 |  |  | 
2 | CC1(C)Oc2c(c3nc4ccccc4nc3c3ccccc23)CC1Br (configuration not stated) | 4.07 | 3.04 | 1.9 | 8.75 | 11 | 10 | inhibition in vivo at 200 mg/kg (Plasmodium berghei [6]): 0%; inhibition in vivo at 200 mg/kg (Plasmodium berghei [7]): 0%; inhibition in vivo at 100 mg/kg (Plasmodium berghei [8]): 0%; inhibition in vivo at 100 mg/kg (Plasmodium berghei [9]): 0%; inhibition in vivo at 200 mg/kg (Plasmodium berghei [10]): 0%; inhibition in vivo at 100 mg/kg (Plasmodium berghei [12]): 0%
3 | C=CCC1Cc2c(c3ccccc3c3nc4ccccc4nc23)OC1(C)C (configuration not stated) | > 20 | > 20 | > 20 | > 20 |  |  | 
4 | CC1(C)Oc2c(c3nc4ccccc4nc3c3ccccc23)CC1I (configuration not stated) | 4.26 | 3.22 | 2.3 | 6.65 |  |  | 
5 | CC1(C)Oc2c(c3nc4ccccc4nc3c3ccccc23)CC1S(=O)(=O)O (configuration not stated) | 2.43 | 1.67 | 1.75 | 6.14 | 33 | 36 | inhibition in vivo at 200 mg/kg (Plasmodium berghei [6]): 50%; inhibition in vivo at 200 mg/kg (Plasmodium berghei [7]): 40%; inhibition in vivo at 100 mg/kg (Plasmodium berghei [9]): 31%; inhibition in vivo at 200 mg/kg (Plasmodium berghei [10]): 98%; inhibition in vivo at 100 mg/kg (Plasmodium berghei [12]): 34%
6 | CC(C)=CCc1c(O)c2ccccc2c2nc3ccccc3nc12 | 3.72 | 3.54 | 3.14 | 9.44 |  |  | 
7 | c1ccc2c(c1)ccc1nc3ccccc3nc12 [BENZO[A]PHENAZINE] | > 20 | > 20 | > 20 | > 20 |  |  | 
8 | CCN(CC)CCCC(C)Nc1ccnc2cc(Cl)ccc12 (configuration not stated) [CHLOROQUINE] |  |  |  |  |  |  | inhibition in vivo at 15 mg/kg (Plasmodium berghei [13]): 99%; inhibition in vivo at 25 mg/kg (Plasmodium berghei [14]): 98%; inhibition in vivo at 15 mg/kg (Plasmodium berghei [15]): 99%; inhibition in vivo at 25 mg/kg (Plasmodium berghei [16]): 99%; inhibition in vivo at 15 mg/kg (Plasmodium berghei [17]): 99%
9 | CC(C)=CCC1=C(O)C(=O)c2ccccc2C1=O [LAPACHOL] |  |  |  |  | 0 | 0 | 
10 | CC1(C)CCC2=C(O1)c1ccccc1C(=O)C2=O [LAPACHONE] |  |  |  |  | 28 | 34 | 
